Laboratory results taken from ChEMBL document CHEMBL1129824, “Nonpeptidic inhibitors of recombinant human calpain I” (Bioorg Med Chem Lett, 1997).
pIC50: −log10 of the molar value.

Key:
[1] = target: Prothrombin (Homo sapiens) (UniProt P00734); test: Inhibitory activity using serine protease, thrombin with Cbz-Phe-Val-Arg-AMC as substrate. The percent inhibition at 10 uM concentration, was reported.
[2] = target: Chymotrypsinogen A (Bos taurus) (UniProt P00766); test: Inhibitory activity using serine protease, alpha-chymotrypsin with Succ-Ala-Ala-Pro-Phe-AMC as substrate. The percent inhibition at 10 uM concentration, was reported.
[3] = target: T1, Calpain-1 catalytic subunit (Homo sapiens, UniProt P07384); test: Inhibitory activity using recombinant human Calpain 1 with Suc-Leu-Tyr-MNA as substrate.
T1 sequence (P07384 whole entry): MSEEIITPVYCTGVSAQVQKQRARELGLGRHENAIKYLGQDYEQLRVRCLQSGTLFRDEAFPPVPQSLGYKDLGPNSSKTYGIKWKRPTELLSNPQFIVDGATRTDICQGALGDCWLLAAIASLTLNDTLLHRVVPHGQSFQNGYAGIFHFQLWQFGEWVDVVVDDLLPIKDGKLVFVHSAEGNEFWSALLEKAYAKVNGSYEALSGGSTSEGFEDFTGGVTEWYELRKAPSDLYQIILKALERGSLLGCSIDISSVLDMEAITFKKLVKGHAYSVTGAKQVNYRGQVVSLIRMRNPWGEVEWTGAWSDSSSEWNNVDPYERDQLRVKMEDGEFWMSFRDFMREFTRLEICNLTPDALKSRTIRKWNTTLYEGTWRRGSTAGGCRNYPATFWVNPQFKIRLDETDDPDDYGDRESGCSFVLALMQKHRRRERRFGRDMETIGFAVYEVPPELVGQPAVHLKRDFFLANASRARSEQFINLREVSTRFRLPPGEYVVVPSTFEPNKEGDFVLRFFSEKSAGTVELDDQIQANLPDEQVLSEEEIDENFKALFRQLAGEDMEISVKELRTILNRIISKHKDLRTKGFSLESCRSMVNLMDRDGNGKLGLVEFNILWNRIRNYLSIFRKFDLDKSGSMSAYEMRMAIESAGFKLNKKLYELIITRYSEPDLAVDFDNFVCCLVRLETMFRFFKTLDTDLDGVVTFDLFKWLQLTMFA

[4] = target: Cathepsin B (Homo sapiens, UniProt P07858); test: Inhibitory activity using cysteine protease, Cathepsin B with Cbz-Phe-Arg-AMC as substrate.

Row | SMILES | inhibition [1] [%] | inhibition [2] [%] | pIC50 [3] | pIC50 [4]
1 | CC(C)C[C@H](CCS(=O)(=O)c1ccc2ccccc2c1)C(=O)N[C@H](C=O)CC(C)C | 1 | 11 |  | 
2 | CC(C)C[C@H](CCSc1ccc2ccccc2c1)C(=O)N[C@H](C=O)CC(C)C | 5 | 11 | 7.12 | 7.22
3 | CC(C)C[C@H](CC[S+]([O-])c1ccc2ccccc2c1)C(=O)N[C@H](C=O)CC(C)C (some centres not stated) | 2 | 18 | 7.52 | 7.22
4 | CC(C)C[C@@H](CCS(=O)(=O)c1ccc2ccccc2c1)C(=O)N[C@H](C=O)CC(C)C | 2 | 12 |  | 
